Values belong to the molecule of their own block, whether it stands above or below them. Residues, ends and D or L forms follow the SMILES beside them.
Assays:
mouse T1R3 GPCR = biological target: T1, mouse T1R3 GPCR (Mus musculus, UniProt Q925D8); assay: Ca-imaging of HEK-293 cells expressing T1R3 and Ggust-25; type: cell-based; details: for T1R3 and Ggust-25 dependent responses: >300 mM, three independent stable lines
T1 construct: expressed in transfected cells
T1 sequence (Q925D8 21-858): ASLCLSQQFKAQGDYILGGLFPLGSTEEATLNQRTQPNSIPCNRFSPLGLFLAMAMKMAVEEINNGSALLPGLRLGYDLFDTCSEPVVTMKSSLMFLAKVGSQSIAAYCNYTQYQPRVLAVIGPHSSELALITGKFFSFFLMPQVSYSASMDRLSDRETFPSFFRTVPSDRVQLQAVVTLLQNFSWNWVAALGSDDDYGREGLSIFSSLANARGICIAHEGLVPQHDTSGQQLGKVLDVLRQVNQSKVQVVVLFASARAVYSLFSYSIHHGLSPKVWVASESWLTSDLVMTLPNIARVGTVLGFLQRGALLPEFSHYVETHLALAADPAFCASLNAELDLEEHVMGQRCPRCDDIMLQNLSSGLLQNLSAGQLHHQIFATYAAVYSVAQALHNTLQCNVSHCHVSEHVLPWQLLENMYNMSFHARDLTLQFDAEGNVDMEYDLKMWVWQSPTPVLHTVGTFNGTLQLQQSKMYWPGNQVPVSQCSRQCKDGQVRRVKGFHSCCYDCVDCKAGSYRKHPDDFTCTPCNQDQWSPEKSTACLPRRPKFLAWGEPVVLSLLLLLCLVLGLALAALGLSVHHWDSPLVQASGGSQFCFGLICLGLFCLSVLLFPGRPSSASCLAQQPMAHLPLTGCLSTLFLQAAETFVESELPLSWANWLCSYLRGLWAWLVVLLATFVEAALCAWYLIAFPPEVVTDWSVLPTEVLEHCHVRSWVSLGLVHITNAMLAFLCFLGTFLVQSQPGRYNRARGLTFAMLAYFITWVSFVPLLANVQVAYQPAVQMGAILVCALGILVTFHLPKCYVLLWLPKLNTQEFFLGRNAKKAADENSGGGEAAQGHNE

T1R knockout mice [1] = assay: Brief access taste test (lick rate relative to control) in wild-type and T1R knockout mice; type: in vivo, mouse; details: for behavioral responses, effect of T1R knockouts: T1R1, T1R2, T1R3 knockout versus wild-type
T1R1+3 = details: cited from earlier work; for activation of T1R1+3: psychophysically relevant concentrations
T1R knockout mice [2] = assay: Chorda tympani nerve recordings in wild-type and T1R knockout mice; type: in vivo, mouse; details: for physiological (nerve) responses: T1R3 KO mice, salt effects minimized; for physiological responses, effect of T1R knockouts: T1R1, T1R2, T1R3 knockout versus wild-type; for neural responses (chorda tympani): wild-type, T1R1, T1R2 and T1R3 knockout mice, 100 mM citric acid, 100 mM NaCl, 10 mM PROP
[3] = test system: T1R2 KO mice expressing a human T1R2 gene; assay: Behavioral taste responses of mice expressing a human T1R2 transgene; type: in vivo, mouse; details: for behavioral response to human sweet tastants: humanized T1R2 mice (T1R2 KO + hT1R2 transgene), monellin ~10 uM, thaumatin ~5 uM, aspartame 10 mM, glycyrrhizic acid 500 uM, neohesperidin dihydrochalcone 400 uM
humans = details: sub-millimolar concentrations; cited from earlier work
rodents = details: 100 times higher concentrations than sweet to humans; cited from earlier work
HEK-293 cells = assay: Ca-imaging, receptor independent rises in [Ca2+]i; type: cell-based, human; details: high concentrations of sugar
Experimental: Modified HEK-293 cells (PEAK^rapid cells; Edge BioSystems, Md.) were grown, transfected with […] and promiscuous G-proteins and assayed for functional responses to tastants by Ca-imaging essentially as described previously (Nelson, G. et al., Cell, 106, 381-390 (2001)). Minor differences in FURA-2 loading and Ca-imaging included using 199(H) Medium (Biosource) containing 0.1% BSA, 100 μM EGTA and 200 μM CaCl2 as assay buffer as well as reducing the time allowed for FURA-AM ester cleavage to 10 minutes. The imaging system was an Olympus IX50 microscope equipped with a 10×/0.5 N.A. fluor objective (Zeiss), the TILL imaging system (TILL Photonics GmbH), and a cooled CCD camera. Acquisition and analysis of fluorescence images used TILL-Vision software. To optimize coupling of […]-responses to changes in [Ca^2+]i, C-terminal residues of human Gα16 (Offermanns, S., and Simon, M. I., J Biol Chem, 270, 15175-15180 (1995)) were replaced with the corresponding residues from Gz (Mody, S. M. et al., Mol Pharmacol, 57, 13-23 (2000)), gustducin (McLaughlin, S. K. et al., Nature, 357, 563-569 (1992)) or Gαi2. […] Cell lines stably expressing T1R3 and Ggust-25 were established using puromycin and Zeocin (Invitrogen) selection. Three independent lines expressing T1R3 and Ggust-25 were used to examine the specificity and dose response of the T1R3 receptor.

T1R2+3 = biological target: T2, T1R2+3 (Mus musculus, UniProt Q925D8+Q925I4); assay: Ca-imaging of HEK-293 cells co-transfected with T1R2 plus T1R3 and Ggust-25; type: cell-based; details: control cells expressing T1R2+3
T2 construct: expressed in transfected cells; host or cells: modified HEK-293 cells (PEAKrapid)
T2 sequence (Q925I4 20-843): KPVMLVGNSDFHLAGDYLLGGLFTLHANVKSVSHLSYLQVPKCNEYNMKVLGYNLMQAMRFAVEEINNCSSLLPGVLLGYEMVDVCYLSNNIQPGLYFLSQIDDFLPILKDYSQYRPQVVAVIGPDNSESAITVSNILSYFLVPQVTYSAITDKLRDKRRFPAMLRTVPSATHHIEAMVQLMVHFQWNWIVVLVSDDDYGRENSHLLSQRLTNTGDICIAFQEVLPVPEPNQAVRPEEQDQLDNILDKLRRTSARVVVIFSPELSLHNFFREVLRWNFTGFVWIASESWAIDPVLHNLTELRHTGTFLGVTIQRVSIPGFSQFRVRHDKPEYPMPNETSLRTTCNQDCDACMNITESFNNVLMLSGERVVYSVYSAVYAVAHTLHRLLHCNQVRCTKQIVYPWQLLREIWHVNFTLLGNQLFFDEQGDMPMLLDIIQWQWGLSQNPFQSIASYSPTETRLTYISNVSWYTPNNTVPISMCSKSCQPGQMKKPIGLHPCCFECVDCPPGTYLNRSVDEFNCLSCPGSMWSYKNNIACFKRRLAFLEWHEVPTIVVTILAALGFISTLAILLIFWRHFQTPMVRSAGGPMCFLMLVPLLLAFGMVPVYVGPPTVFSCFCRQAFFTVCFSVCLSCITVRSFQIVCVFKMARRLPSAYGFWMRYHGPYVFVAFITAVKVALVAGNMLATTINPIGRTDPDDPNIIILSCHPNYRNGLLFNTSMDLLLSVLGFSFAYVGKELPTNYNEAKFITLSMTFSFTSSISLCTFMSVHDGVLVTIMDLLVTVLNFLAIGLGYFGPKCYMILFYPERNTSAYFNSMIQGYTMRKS
T2 sequence (Q925D8 21-858): T1 sequence (Q925D8 21-858)

[4] = T1R1 and T1R3 knockout animals, L-Asp 100 mM, AP4 30 mM
[5] = T1R3 KO mice, salt effects minimized

T1R3 and Ggust-25 dependent responses (mouse T1R3 GPCR): dose dependent responses
Molecule: OC[C@H]1O[C@H](O[C@H]2[C@H](O)[C@@H](O)C(O)O[C@@H]2CO)[C@H](O)[C@@H](O)[C@@H]1O (mixture of isomers) [maltose]
taste preference relative to water (T1R knockout mice [1]; T1R2 and T1R3 knockout animals): residual responses

Molecule: NC(CCP(=O)(O)O)C(=O)O (stereo not shown) [AP4]
taste preference relative to water (T1R knockout mice [1]; [4]): complete loss in preference
activation of T1R1+3 (T1R1+3): activated

Molecule: C[C@H](N)C(=O)O [Ala]
behavioral attraction (T1R knockout mice [1]; T1R1 KO animals, >300 mM): small residual attraction

Molecule: Nc1nc2c(ncn2[C@@H]2O[C@H](COP(=O)(O)O)[C@@H](O)[C@H]2O)c(=O)[nH]1 [GMP]
enhancement of T1R1+3 activity (T1R1+3): reliably enhanced

Molecule: N[C@@H](CC(=O)O)C(=O)O [L-Asp, aspartic acid]
taste preference relative to water (T1R knockout mice [1]; [4]): complete loss in preference
behavioral attraction (T1R knockout mice [1]; [5]): dramatic loss of behavioral attraction
physiological (nerve) responses (T1R knockout mice [2]): profound corresponding deficit in physiological responses
activation of T1R1+3 (T1R1+3): activated

Molecule: N[C@@H](CCC(=O)O)C(=O)[O-].[Na+] [MSG, monosodium glutamate]
taste preference relative to water (T1R knockout mice [1]; [4]): complete loss in preference
integrated chorda tympani response (T1R knockout mice [2]; T1R1 and T1R3 knockouts, high concentration of salt (100 mM MSG)): residual responses are detected

Molecule: [Cl-].[Na+] [NaCl, sodium chloride]
behavioral responses, effect of T1R knockouts (T1R knockout mice [1]): no significant effect
physiological responses, effect of T1R knockouts (T1R knockout mice [2]): no significant effect
neural responses (chorda tympani) (T1R knockout mice [2]): robust neural responses

Molecule: CCCc1cc(=O)[nH]c(=S)[nH]1 [PROP, 6-n-propyl-thiouracil]
neural responses (chorda tympani) (T1R knockout mice [2]): robust neural responses

Molecule: N[C@@H](CO)C(=O)O [Ser]
behavioral attraction (T1R knockout mice [1]; T1R1 KO animals, >300 mM): small residual attraction

Molecule: C[C@@H](O)[C@H](N)C(=O)O [Thr]
behavioral attraction (T1R knockout mice [1]; T1R1 KO animals, >300 mM): small residual attraction

Molecule: COC(=O)[C@H](Cc1ccccc1)NC(=O)[C@@H](N)CC(=O)O [aspartame] (H-Asp-Phe-OMe)
behavioral attraction ([3]; 10 mM, three independent human T1R2 transgenic lines): displayed behavioral attraction
behavioral response to human sweet tastants [3]: ability to detect and respond
sweet taste to humans (humans): taste sweet
preference in rodents (rodents): no preference

Molecule: O=C(O)CC(O)(CC(=O)O)C(=O)O [citric acid]
behavioral responses, effect of T1R knockouts (T1R knockout mice [1]): no significant effect
physiological responses, effect of T1R knockouts (T1R knockout mice [2]): no significant effect
neural responses (chorda tympani) (T1R knockout mice [2]): robust neural responses

Molecule: O=C(CO)[C@@H](O)[C@H](O)[C@H](O)CO [fructose]
receptor independent rises in [Ca2+]i (HEK-293 cells): significant receptor independent rises in [Ca^2+]i

Molecule: O=C[C@H](O)[C@@H](O)[C@@H](O)[C@H](O)CO [galactose]
receptor independent rises in [Ca2+]i (HEK-293 cells): significant receptor independent rises in [Ca^2+]i

Molecule: N[C@@H](CCC(=O)O)C(=O)O [glutamate]
behavioral attraction (T1R knockout mice [1]; [5]): dramatic loss of behavioral attraction
physiological (nerve) responses (T1R knockout mice [2]): profound corresponding deficit in physiological responses

Molecule: CC1(C)[C@@H](O[C@H]2O[C@H](C(=O)O)[C@@H](O)[C@H](O)[C@H]2O[C@@H]2O[C@H](C(=O)O)[C@@H](O)[C@H](O)[C@H]2O)CC[C@]2(C)[C@H]3C(=O)C=C4[C@@H]5C[C@@](C)(C(=O)O)CC[C@]5(C)CC[C@@]4(C)[C@]3(C)CC[C@@H]12 [glycyrrhizic acid]
behavioral response to human sweet tastants [3]: ability to detect and respond

[Ca2+]i response (mouse T1R3 GPCR; 300 mM saccharin): No responses were detected
[Ca2+]i response (T1R2+3; 30 mM saccharin): respond robustly
Molecule: O=C1NS(=O)(=O)c2ccccc21 [saccharin]

increases in [Ca2+]i (FURA-2) (mouse T1R3 GPCR; 500 mM sucrose): increases in [Ca^2+]i
T1R3 and Ggust-25 dependent responses (mouse T1R3 GPCR): dose dependent responses
[Ca2+]i response (T1R2+3; 300 mM sucrose): respond robustly
Molecule: OC[C@H]1O[C@@](CO)(O[C@H]2O[C@H](CO)[C@@H](O)[C@H](O)[C@H]2O)[C@@H](O)[C@@H]1O [sucrose]
taste preference relative to water (T1R knockout mice [1]; T1R2 and T1R3 knockout animals): residual responses

Molecule: OC[C@H]1O[C@H](O[C@H]2O[C@H](CO)[C@@H](O)[C@H](O)[C@H]2O)[C@H](O)[C@@H](O)[C@@H]1O [trehalose]
receptor independent rises in [Ca2+]i (HEK-293 cells): significant receptor independent rises in [Ca^2+]i

B1: thaumatin (protein)
chain: ATFEIVNRCSYTVWAAASKGDAALDAGGRQLNSGESWTINVEPGTNGGKIWARTDCYFDDSGSGICKTGDCGGLLRCKRFGRPPTTLAEFSLNQYGKDYIDISNIKGFNVPMDFSPTTRGCRGVRCAADIVGQCPAKLKAPGGGCNDACTVFQTSEYCCTTGKCGPTEYSRFFKRLCPDAFSYVLDKPTTVTCPGSSNYRVTFCPTA
notes: sweet protein
behavioral response to human sweet tastants [3]: ability to detect and respond
sweet taste to humans (humans): taste sweet
preference in rodents (rodents): no preference

B2: monellin (protein)
chain 1: FREIKGYEYQLYVYASDKLFRADISEDYKTRGRKLLRFNGPVPPP
chain 2: GEWEIIDIGPFTQNLGKFAVDEENKIGQYGRLTFNKVIRPCMKKTIYEEN
notes: sweet protein
behavioral response to human sweet tastants [3]: ability to detect and respond
sweet taste to humans (humans): taste sweet
preference in rodents (rodents): no preference
